From patent US4735943A, “Eburnamonine oxime derivatives, salts thereof, and pharmaceutical agents containing the same” (Sanwa Kagaku Kenkyusho Co., Ltd., priority 1984, dated 1988)

Assays:
in vivo = conditions: mouse, male mice, oral, mortality after 72 hours
[1] = tested on: blood flow in vertebral artery; assay: Cerebral Blood Flow Increase (blood flow in vertebral artery, electromagnetic rheometer); format: in vivo; conditions: anesthetized mongrel dogs, 1.0 mg/dog into vertebral artery
Experimental: (Cerebral Blood Flow Increase) Male and female mongrel dogs anesthetized with nembutal (sodium pentobarbital) were employed as subject and a blood flow in vertebral artery of those animals were measured with use of an electromagnetic rheometer. Each of testing compounds was administered to vertebral artery in a ratio of 1.0 mg/dog to determine a change in blood flow in the vertebral artery.

[2] = tested on: erythrocyte deformability; assay: Acceleration on Erythrocyte Deformability (filtration-pressure method); format: in vivo, Wister male rats; conditions: rats, 10 mg/kg oral, blood 1 h after administration, 0.1% erythrocyte suspension
Experimental: (Acceleration on Erythrocyte Deformability) Each of testing compounds was orally administered to an amount of 10 mg/kg to Wister male rats (about 250 g, 5 animals/group). After one hour from the administration, blood sample was collected to prepare 0.1% erythrocyte suspension. An action of the compound to an erythrocyte deformability was studied in accordance with a filtration-pressure method to obtain results as shown in following Table 5.

[3] = tested on: collagen aggregation of platelets; assay: Depression on Blood Platelet Aggregation, collagen; format: cell-based, Wister male rat; conditions: in vitro, rat platelet plasma, read-out: depression Ratio to Collagen; for inhibition at 10 µg/mL: final conc. 10 μg/ml
From the text: (§1) (Depression on Blood Platelet Aggregation) With use of a blood-plasma with excess platelets (obtained from a Wister male rat, about 250 g), a depressing effect of each testing compound to ADP and collagen aggregations was studied in vitro (3 to 5 samples/group).Results are shown in following Table 4.

d,d-mice = assay: Cerebral Function Protection (recovery after rod dropped on vertex); format: in vivo, male; conditions: 10 mg/kg oral, 30 min before, negative values given as "not effective"
Experimental: (Cerebral Function Protection) To each of male d,d-mice (16-24 g, 6 to 24 animals/group), each of testing compounds was orally administered in an amount of 10 mg/kg. After 30 minutes from the administration, a cylindrical rod made of bakelite (diameter: 1 cm, weight: 36 g) was free dropped with a level height of 40 cm on a vertex of the mouse to hypnotize the same, in accordance with a method disclosed by […] et al ["Tyaku-no-Ayumi (The Progress in Medicines)", 104 (4), 253, 1978]. Observations were continued until a recovering reflex from the lethargy and a spontaneous motion appear to determine a reduction ratio of time period on such behavior appearances.

[4] = tested on: brain of rats with an essential hypertension (SHR); assay: Cerebral Metabolic Activation (cerebral ischemia by ligation of both common carotid arteries); format: in vivo, male); conditions: 10 mg/kg oral 1 h after ligation, measured 5 h after ligation
Experimental: (Cerebral Metabolic Activation) According to a known method [Fujishima et al, "Rinshou-to-Kenkyu (The Clinics and Studies)" 51, 3532, 1974], both common carotid arteries of rats with an essential hypertension (SHR, male, 250-350 g, 4 to 5 animals/group) were ligated to cause a cerebral ischemia. After one hour from the ligation, each of testing compounds was orally administered in an amount of 10 mg/kg and various parameters in brain were measured at the time having lapsed 5 hours from the ligation.

[5] = tested on: ADP aggregation of platelets; assay: Depression on Blood Platelet Aggregation, ADP; format: cell-based, Wister male rat; conditions: in vitro, rat platelet plasma, read-out: depression Ratio to ADP; for inhibition at 10 µg/mL: final conc. 10 μg/ml, negative values given as "not effective"
From the text: as §1

Row | SMILES | LD50 at 72 h (in vivo) | Increase in Blood Flow [1] | Reduction Rate in Filtering Pressure [2] | inhibition at 2 µg/mL ([3]; final conc. 2 μg/ml) | Reduction ratio, time to appear spontaneous motion (d,d-mice) | Reduction ratio, time to recover sit-up reflex (d,d-mice) | Amount of ATP in brain [4] | Amount of Glucose in brain [4] | Amount of Lactic acid in brain [4] | inhibition at 2 µg/mL ([5]; final conc. 2 μg/ml) | inhibition at 10 µg/mL [3] | inhibition at 10 µg/mL [5]
1 | CCN(CC)CCON=C1C[C@]2(CC)CCCN3CCc4c(n1c1ccccc41)[C@@H]32 [Example 2, (3α,16α)-eburnamenin-14(15H)-one O-[2-(N,N-diethylamino)ethyl]oxime] | 611 mg/kg | 269.5% | 6.0% | 73.8% | 48.7% | 54.3% | 0.36 µmol/g | 1030 nmol/g | 4.62 µmol/g | 5.7% |  | 
2 | CC[C@]12CCCN3CCc4c(n(c5ccccc45)C(=NOCCN(C)C)C1)[C@@H]32 [Example 3, (3α,16α)-eburnamenin-14(15H)-one O-[2-(N,N-dimethylamino)ethyl]oxime] | 700 mg/kg | 247.3% | 10.2% |  | -11.3% | -33.0% | 0.18 µmol/g | 740 nmol/g | 7.01 µmol/g |  | 3.2% | 5%
3 | CC[C@]12CCCN3CCc4c(n(c5ccccc45)C(=NOCCN4CCCC4)C1)[C@@H]32 [Example 4, (3α,16α)-eburnamenin-14(15H)-one O-[2-(1-pyrrolidinyl)ethyl]oxime] | 532 mg/kg | 260.6% | 9.3% |  | -71.6% | -96.1% | 0.25 µmol/g | 896 nmol/g | 6.34 µmol/g |  | 4.4% | -10%
4 | CC[C@]12CCCN3CCc4c(n(c5ccccc45)C(=NOCCN4CCN(c5ccccc5OC)CC4)C1)[C@@H]32 [Example 5, (3α,16α)-eburnamenin 14(15H)-one O-{2-[4-(2-methoxyphenyl)-1-piperazinyl]ethyl}oxime] | 660 mg/kg | 179.3% | 13.2% |  | 6.9% | 0.4% | 0.28 µmol/g | 802 nmol/g | 5.50 µmol/g |  | 9.3% | 5.5%
5 | CC[C@]12CCCN3CCc4c(n(c5ccccc45)C(=NOCC(O)CN4CCN(c5ccccc5OC)CC4)C1)[C@@H]32 (stereo partly drawn) [Example 6, (3α,16α)-eburnamenin-14(15H)-one O-{2-hydroxy-3-[4-(2-methoxyphenyl)-1-piperazinyl]propyl}oxime] | 560 mg/kg | 357.7% | 35.1% |  | 47.2% | 23.5% | 0.32 µmol/g | 1010 nmol/g | 4.95 µmol/g |  | 9.5% | 6.3%
6 | CC[C@]12CCCN3CCc4c(n(c5ccccc45)C(=NO)C1)[C@@H]32 [Reference Example, (3α,16α)-eburnamenin-14(15H)-one oxime] | 510 mg/kg | 144.9% | 8.3% |  | -5.3% | -12.4% | 0.20 µmol/g | 592 nmol/g | 7.10 µmol/g |  | 5.4% | -1.2%
7 | CCOC(=O)C1=C[C@]2(CC)CCCN3CCc4c(n1c1ccccc41)[C@@H]32 [vinpocetine, reference compound] |  | 261.4% | 46.3% |  |  |  | 0.36 µmol/g | 1120 nmol/g | 7.00 µmol/g |  | 4% | -0.2%
